The text below walks through data of patent publication US4272507A, “Phenylaminothiophenacetic acids, their synthesis, compositions and use” (priority 1978, dated 1981).

Each structure is given as a SMILES string. Where two headings read alike, the source gives them in different places.

The conditions of data set [1]: versus phenylbutazone; cited from earlier work.
The conditions of data set [2]: versus phenylbutazone; cited from earlier work. This is another data set of the same source.
In data set [3] the test system is pain reaction provoked in rats by bending an inflamed ankle (AgNO3 arthritis). Description: animal or person. Type of data set: in vivo. The following applies: for Therapeutic quotient LD50/ED50 / therapeutic quotient LD50/ED25: AgNO3 arthritis pain, LD50 7 days oral; for Therapeutic quotient LD50/ED50 / therapeutic quotient LD50/ED25 / ED50 / Inhibition of the pain reaction: rats; for ED25 / ED50: Rattus norvegicus, po; for ED25: read-out: ED25 (dose which completely suppresses the pain reaction in 25% of the animals); for ED50: perorally, at the time of maximum action, read-out: ED50 (dose which completely suppresses the pain reaction in 50% of the animals). As for the experimental part:
Based on the method of HOFFMEISTER et al. [Arzneim. Forsch., 24, (1974) 600], 0.2 ml of a 1% strength silver nitrate solution is injected into the ankle joint (inside) of the right hind paw of female Sprague-Dawley rats (each animal weighing about 160 to 180 g) under ether anaesthesia. The animals are kept at 24° C. and are fed Altromin®R and water ad libitum. After the AgNO3 injection, almost all the animals (90 to 95%) can be made to cry out by moderate bending of the ankle joint. All the animals reacting positively are collected into groups of 10 animals. The compounds to be tested are administered orally in a volume of liquid of 10 ml/kg immediately after administration of the AgNO3; the untreated control animals receive the corresponding amount of tapwater.
Over a period of 4 hours after administration of the substance, the number of animals reacting is determined at half hourly intervals.
The maximum percentage of the protected animals over a period of 4 hours after administration of the substance [relative to the number of animals in the control group reacting (=100%)] serves as a measure of the analgesic action.

The subject of data set [4] is adjuvant arthritis in rats. Description: Antiarthritic action: adjuvant arthritis in rats (Mycobacterium butyricum). As to conditions: for ED25: Rattus norvegicus, po, 120 h, read-out: ED25 (inhibition of adjuvant arthritis of 25%); for therapeutic quotient LD50/ED25: adjuvant arthritis, LD50 7 days oral, rats. As for the experimental part: (§1) Biol. Med., 111 (1962) 544]}, on chronic inflammatory processes {Cotton pellet test on rats [Winter et al.: J. Pharmacol. exp. Therap., 141 (1963) 369]} and on adjuvant arthritis [based on the method of Perrine et al., Brit. J. Pharmacol., 21 (1963) 127] is determined.
The influence of the compounds to be tested on polyarthritis in rats caused by Mycobacterium butyricum (so-called "adjuvant arthritis") was determined using the experimental arrangement hereafter described: based on the method described by NEWBOULD and PERRINE et al. [NEWBOULD, B. B.; Brit. J. Pharmacol. 21, 127 (1963); and PERRINE, J. W. and TAKESUE, E. I.; Arch. int. Pharmacodyn., 174, 192 to 198 (1968)], so-called adjuvant arthritis, which manifests itself chiefly in a severe swelling of the tail (primary lesion) and of the paws (secondary lesion), is caused in rats by intradermal injection of a Mycobact. butyricum suspension in liquid paraffin into the base of the tail. Antiphlogistic agents inhibit this swelling reaction.

The nature of a further data set: in vivo. As to conditions: rat, po.
Data set [5] deals with yeast-induced fever in rats. Briefly: Antipyretic action: yeast-induced fever in rats. Type of data set: in vivo, rats (female Sprague-Dawley). As to conditions: for ED (1.5 degC): Rattus norvegicus, po, read-out: ED1.5 (dose which causes a maximum reduction in yeast-induced fever of 1.5° C.). The procedure:
The antipyretic action is determined by the influence of the compounds to be tested on yeast-induced fever in rats.
Hyperthermia is produced in female Sprague-Dawley rats (in groups of 5 animals; weight of each animal: 160 to 180 g) by subcutaneous injection (neck) of 10 ml/kg of a 20 percent strength aqueous brewer's yeast suspension (brewer's yeast "Heliosan"/Hefereformwerk Radolfzell). 24 hours after the yeast injection, the compounds to be tested are administered orally to the animals in a volume of liquid of 5 ml/kg, and a control group receives the corresponding amount of tapwater. The feed (Altromin®R, water ad libitum) was withdrawn from the rats 18 hours beforehand. The rats are kept at about 23° C.
The body temperature is recorded 1 hour before administration of the substance and at hourly intervals after administration of the substance.
[…] The body temperature is measured with a temperature probe (Tastomed H, Braun electronic).

Data set [6] concerns carrageenin edema of the hind paw of rats. Briefly: Acute antiphlogistic action: carrageenin edema of the hind paw of rats after single oral administration. As to conditions: for ED50: Rattus norvegicus, po, read-out: ED50 (dose which causes a maximum edema inhibition of 50%); for Therapeutic quotient LD50/ED50: carrageenin edema, LD50 7 days oral; for Therapeutic quotient LD50/ED50 / Maximum inhibition of carrageenin edema within 7 hours after oral administration: rats. The procedure:
as §1
The influence of the compounds to be tested on carrageenin edema of the hind paw of rats was determined as follows:
The rats are kept at 24° C.
The paw volume of each rat is determined (2 to 3 individual measurements in each case) before edema provocation and at hourly intervals for 7 hours after edema provacation. The average percentage paw swelling of each treated group determined at the specified times after the carrageenin injection is related to that of the untreated control group (=100%).
The maximum percentage edema inhibition serves as a measure of the antiphlogistic action.
The paw volume is determined plethysmometrically. Measuring principle: the volume of liquid displaced through the paw of the rat is recorded digitally via an electromechanical pressure transducer (Statham P 23 V, 0-200 mm Hg).
The doses indicated for the compounds tested were administered in a volume of liquid of 20 ml/kg.
(In general: In the carrageenan paw model, swelling and tenderness develop within hours.)

Data set [7] can be described thus: Chronic antiphlogistic action: cotton pellet test (formation of granulation tissue) in rats. The following applies: rat, in vivo, po. As for the experimental part: as §1
(§2) Experimental procedure for investigating the influence of the compounds to be tested on the formation of granulation tissue after implantation of cotton in rats (so-called cotton pellet method):
(§3) 1 cotton pellet (manufacturer: Messrs. Hartmann/Heidenheim; cotton pellets size 2, No. 4865/2) which weighs 13.0±0.5 mg and has been impregnated beforehand with 0.1 ml of a solution of 0.5 mg of penicillin G and 0.8 mg of streptomycin sulfate/1 ml of distilled water is in each case implanted subcutaneously into the shoulder-blade region, on both sides, of male Sprague-Dawley rats (groups of 8 animals each; weight of each animal: 150 to 170 g) under diethyl ether anaesthesia and under sterile conditions. The cut skin is closed by means of clamps.
(§4) The compounds to be tested (in the form of the sodium salt in aqueous solution) or the corresponding amount (5 ml/kg/day) of tapwater (=control group) are administered orally each day on seven successive days. On the eighth day, the animals are killed and the cotton granules are exposed carefully, that is to say preserving the fibrous tissue capsule, dried (15 hours at 120°) and weighed. By substracting the weight of the cotton pellets, the amount of newly formed granulation tissue is obtained.
(§5) The percentage reduction in the average granuloma dry weight of a treated group compared with the control group (=100%) serves as a measure of the antiproliferative action of a compound.

The test system of data set [8] is formation of granulation tissue after subcutaneous implantation of cotton. The description is as above. As to conditions: rats; for Therapeutic quotient LD50/ED20: cotton pellet test, LD50 7 days oral; for Inhibition of the formation of granulation tissue after treatment for 7 days: sodium salt. The procedure:
as §1, §2, §3, §4, §5

Take `Cc1cccc(Nc2cscc2C(=O)O)c1C` [2,3-dimethylphenyl compound]: the antipyretic action entry in data set [1] is “superior”. Moreover, the antiphlogistic action result in data set [2] was “comparable to that of phenylbutazone”.
In general, ED50 refers to the dose that gives a 50% effect, or the effect in half of the subjects. In general, LD50 refers to the dose expected to kill half of the subjects tested. High values mean lower toxicity, low ones greater toxicity. In general, mortality refers to the percentage killed. A high value points to fewer survivors. As to `COc1ccc2c(c1)c(CC(=O)O)c(C)n2C(=O)c1ccc(Cl)cc1` [Compound 2, indomethacin, reference compound], the “Therapeutic quotient LD50/ED50” value in data set [3] is 0.92; in [6] it was 1.2. Besides, the “therapeutic quotient LD50/ED25” value in [3] turned out to be 4.58; in data set [4], 30.6. For the same compound, the ED25 in data set [3] is 1.2 mg/kg; in data set [4], 0.18 mg/kg/day. The ED50 in [3] came out at 6 mg/kg; in data set [6] it was 4.6 mg/kg. Also, the “Inhibition of the pain reaction” value worked out at 23% in data set [3] (single oral dose 1 mg/kg), 36% in data set [3] (single oral dose 3 mg/kg) and 50% in data set [3] (single oral dose 6 mg/kg). In the data set “in vivo”, the LD50 at 168 h amounted to 5.5 mg/kg. Further, the ED (1.5 degC) in [5] turned out to be 5 mg/kg. Besides, the “Maximum reduction in yeast-induced fever over a period of 7 hours” value is 0.2 °C in data set [5] (rats, single oral dose 1 mg/kg); 0.7 °C in [5] (rats, single oral dose 3 mg/kg); 1.8 °C in data set [5] (rats, single oral dose 6 mg/kg). Besides, the “Maximum inhibition of carrageenin edema within 7 hours after oral administration” value in [6] (single oral dose 1.0 mg/kg) was determined as 29%; in [6] (single oral dose 3.0 mg/kg), 47%; in data set [6] (single oral dose 10.0 mg/kg), 56%. For the same compound, in data set [7] (5 mg/kg/day), the mortality at 168 h worked out at 25%. For the same compound, in [8], the “Therapeutic quotient LD50/ED20” value is listed as ~ 1.8. Also, the “Inhibition of the formation of granulation tissue after treatment for 7 days” value in data set [8] (7 x 0.1 mg/kg/day orally) stood at 7%; in [8] (7 x 0.3 mg/kg/day orally), 11%; in data set [8] (7 x 1.0 mg/kg/day orally) it was 16%; in data set [8] (7 x 3.0 mg/kg/day orally) it was 16%; in data set [8] (7 x 4.0 mg/kg/day orally), 17%.
Regarding `O=C(O)Cc1cscc1Nc1c(Cl)cccc1Cl` [Compound 3, 4-(2,6-dichloroanilino)-3-thiophenacetic acid], the figures for the “Therapeutic quotient LD50/ED50” value in data set [3] and in data set [6] were 3.67 and 6.9, respectively. Besides, the “therapeutic quotient LD50/ED25” value in data set [3] amounted to 11; in [4], 55. For the same compound, the ED25 in [3] was determined as 1 mg/kg; in data set [4], 0.2 mg/kg/day. Besides, the ED50 in data set [3] was 3 mg/kg; in data set [6], 1.6 mg/kg. The “Inhibition of the pain reaction” value in data set [3] (single oral dose 1 mg/kg) worked out at 26%; in [3] (single oral dose 3 mg/kg), 50%; in [3] (single oral dose 10 mg/kg) it was 62%. In the data set “in vivo”, this compound registered an LD50 at 168 h of 11 mg/kg. Besides, the ED (1.5 degC) in data set [5] (rats, perorally, single dose) came out at 0.4 mg/kg. The “Maximum reduction in yeast-induced fever over a period of 7 hours” value in data set [5] (rats, single oral dose 0.03 mg/kg) amounted to 0.4 °C; in data set [5] (rats, single oral dose 0.1 mg/kg), 0.8 °C; in data set [5] (rats, single oral dose 0.3 mg/kg), 1.4 °C; in data set [5] (rats, single oral dose 1 mg/kg), 1.7 °C. Further, the “Maximum inhibition of carrageenin edema within 7 hours after oral administration” value worked out at 29% in [6] (single oral dose 0.3 mg/kg), 46% in data set [6] (single oral dose 1.0 mg/kg) and 56% in data set [6] (single oral dose 3.0 mg/kg). The compound also yielded a mortality at 168 h in data set [7] (6 mg/kg/day) of 0%. In [8], the “Therapeutic quotient LD50/ED20” value was ~ 11. Also, the “Inhibition of the formation of granulation tissue after treatment for 7 days” value in [8] (7 x 0.1 mg/kg/day orally) was 6%; in [8] (7 x 0.3 mg/kg/day orally), 15%; in data set [8] (7 x 1.0 mg/kg/day orally), 14%; in data set [8] (7 x 3.0 mg/kg/day orally), 22%; in [8] (7 x 5.0 mg/kg/day orally), 22%; in [8] (7 x 6.0 mg/kg/day orally), 36%.
